Literature values in PubChem BioAssay AID1259409 (Chemical Carcinogenesis Research Information System (CCRIS), 2018).

System: rodent chemically induced tumor inhibition, incidence and multiplicity
Assay: CCRIS tumor inhibitor studies
Settings: Route [Inhibitor]: ORAL, Species: RAT, Promoter: NONE USED

Q: Which results are given for `O=C1O[C@H]([C@@H](O)CO)C(O)=C1O`?
A: tumour outcome (control, treated, inhibition, significance) (Carcinogen: N-ETHYL-N-(4-HYDROXYBUTYL)NITROSAMINE, 54897-62-0, Dose [Inhibitor]: 5% IN BASAL DIET ADMINISTERED SIMULTANEOUSLY WITH CARCINOGEN DOSE FOR 20 WK (STUDY DURATION: 20 WK), Strain/Sex: F344/MALE, Target Tissue: Type of Lesion: BLADDER: PAPILLOMA, Dose [Carcinogen]: 0.021% IN DRINKING WATER FOR 20 WK): 14/15 (93%), 12/15 (80%), 14%, not significant; tumour outcome (control, treated, inhibition, significance) (Carcinogen: N-METHYL-N-NITROSOUREA, 684-93-5, Dose [Inhibitor]: 0, 5% IN DIET BEGINNING POST CARCINOGEN TREATMENT AND CONTINUING FOR 23 WK (STUDY DURATION: 25 WK), Strain/Sex: F344/MALE, Target Tissue: Type of Lesion: FORESTOMACH: PAPILLOMA, Dose [Carcinogen]: 50 MG/KG 4/2 WK): 8/17 (47%), 7/20 (35%), 26%, not calculated; tumour outcome (control, treated, inhibition, significance) (Carcinogen: N-METHYL-N-NITROSOUREA, 684-93-5, Dose [Inhibitor]: 0, 5% IN DIET BEGINNING POST CARCINOGEN TREATMENT AND CONTINUING FOR 23 WK (STUDY DURATION: 25 WK), Strain/Sex: F344/MALE, Target Tissue: Type of Lesion: FORESTOMACH: SQUAMOUS CELL CARCINOMA, Dose [Carcinogen]: 50 MG/KG 4/2 WK): 2/17 (12%), 2/20 (10%), 17%, not calculated; tumour outcome (control, treated, inhibition, significance) (Carcinogen: N-METHYL-N-NITROSOUREA, 684-93-5, Dose [Inhibitor]: 0, 5% IN DIET BEGINNING POST CARCINOGEN TREATMENT AND CONTINUING FOR 23 WK (STUDY DURATION: 25 WK), Strain/Sex: F344/MALE, Target Tissue: Type of Lesion: HEMATOPOIETIC SYSTEM: LYMPHOMA OR LEUKEMIA, Dose [Carcinogen]: 50 MG/KG 4/2 WK): 3/17 (18%), 4/20 (20%), -11%, not calculated; tumour outcome (control, treated, inhibition, significance) (Carcinogen: N-METHYL-N-NITROSOUREA, 684-93-5, Dose [Inhibitor]: 0, 5% IN DIET BEGINNING POST CARCINOGEN TREATMENT AND CONTINUING FOR 23 WK (STUDY DURATION: 25 WK), Strain/Sex: F344/MALE, Target Tissue: Type of Lesion: SMALL INTESTINE: ADENOCARCINOMA, Dose [Carcinogen]: 50 MG/KG 4/2 WK): 9/17 (53%), 0/20 (0%), 100%, not calculated; tumour outcome (control, treated, inhibition, significance) (Carcinogen: N-METHYL-N-NITROSOUREA, 684-93-5, Dose [Inhibitor]: 0, 5% IN DIET BEGINNING POST CARCINOGEN TREATMENT AND CONTINUING FOR 23 WK (STUDY DURATION: 25 WK), Strain/Sex: F344/MALE, Target Tissue: Type of Lesion: SMALL INTESTINE: ADENOMA, Dose [Carcinogen]: 50 MG/KG 4/2 WK): 10/17 (59%), 16/20 (80%), -36%, not calculated; tumour outcome (control, treated, inhibition, significance) (Carcinogen: N-METHYL-N-NITROSOUREA, 684-93-5, Dose [Inhibitor]: 0, 5% IN DIET BEGINNING POST CARCINOGEN TREATMENT AND CONTINUING FOR 23 WK (STUDY DURATION: 25 WK), Strain/Sex: F344/MALE, Target Tissue: Type of Lesion: THYROID: ADENOCARCINOMA, Dose [Carcinogen]: 50 MG/KG 4/2 WK): 1/17 (6%), 0/20 (0%), 100%, not calculated; tumour outcome (control, treated, inhibition, significance) (Carcinogen: N-METHYL-N-NITROSOUREA, 684-93-5, Dose [Inhibitor]: 0, 5% IN DIET BEGINNING POST CARCINOGEN TREATMENT AND CONTINUING FOR 23 WK (STUDY DURATION: 25 WK), Strain/Sex: F344/MALE, Target Tissue: Type of Lesion: THYROID: ADENOMA, Dose [Carcinogen]: 50 MG/KG 4/2 WK): 3/17 (18%), 6/20 (30%), -67%, not calculated; tumour outcome (control, treated, inhibition, significance) (Carcinogen: N-METHYL-N-NITROSOUREA, 684-93-5, Dose [Inhibitor]: 0, 5% IN DIET BEGINNING POST CARCINOGEN TREATMENT AND CONTINUING FOR 23 WK (STUDY DURATION: 25 WK), Strain/Sex: F344/MALE, Target Tissue: Type of Lesion: TONGUE: PAPILLOMA, Dose [Carcinogen]: 50 MG/KG 4/2 WK): 2/17 (12%), 4/20 (20%), -67%, not calculated; tumour outcome (control, treated, inhibition, significance) (Carcinogen: N-METHYL-N-NITROSOUREA, 684-93-5, Dose [Inhibitor]: 0, 5% IN DIET BEGINNING POST CARCINOGEN TREATMENT AND CONTINUING FOR 23 WK (STUDY DURATION: 25 WK), Strain/Sex: F344/MALE, Target Tissue: Type of Lesion: TONGUE: SQUAMOUS CELL CARCINOMA, Dose [Carcinogen]: 50 MG/KG 4/2 WK): 2/17 (12%), 2/20 (10%), 17%, not calculated; tumour outcome (control, treated, inhibition, significance) (Carcinogen: N-METHYL-N-NITROSOUREA, 684-93-5, Dose [Inhibitor]: 0, 5% IN DIET BEGINNING POST CARCINOGEN TREATMENT AND CONTINUING FOR 23 WK (STUDY DURATION: 25 WK), Strain/Sex: F344/MALE, Target Tissue: Type of Lesion: URINARY BLADDER: PAPILLOMA, Dose [Carcinogen]: 50 MG/KG 4/2 WK): 2/17 (12%), 10/20 (50%), -316%, not calculated; outcome (Carcinogen: N-METHYL-N-NITROSOUREA, 684-93-5, Dose [Inhibitor]: 0, 5% IN DIET BEGINNING POST CARCINOGEN TREATMENT AND CONTINUING FOR 23 WK (STUDY DURATION: 25 WK), Strain/Sex: F344/MALE, Target Tissue: Type of Lesion: URINARY BLADDER: TRANSITIONAL CELL CARCINOMA, Dose [Carcinogen]: 50 MG/KG 4/2 WK): 0/17 (0%), 2/20 (10%), -100%, not calculated; tumour outcome (control, treated, inhibition, significance) (Carcinogen: N-METHYL-N-NITROSOUREA, 684-93-5, Dose [Inhibitor]: 1% IN 20% FAT DIET DAILY STARTING 2 WK BEFORE START OF CARCINOGEN TREATMENT AND CONTINUING FOR DURATION OF STUDY (STUDY, Strain/Sex: F344/FEMALE, Target Tissue: Type of Lesion: COLON: ADENOMA, ADENOCARCINOMA, Dose [Carcinogen]: 2 MG 2/WK FOR 2 WK): 42%, 46%, -10%, not significant
